Experimental data published in patent publication US20240041042A1, “1-(PYRIDYL)-5-AZINYLPYRAZOLE DERIVATIVES, AND THEIR USE FOR CONTROL OF UNDESIRED PLANT GROWTH” (Bayer Aktiengesellschaft, priority 2020, published 2024).
Like-named read-outs stand apart in the source and are kept apart here.

Key:
Assay type in all cases: in vivo
[1] = tested on: Echinochloa crus-galli (ECHCG); assay: Post-emergence herbicidal action against ECHCG
Procedure, shortened: (§1)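 Values are percent visual activity (0% like control, 100% plants dead) after about 3 weeks in the greenhouse. Treatment: post-emergence spray at one-leaf stage, 600 l/ha spray volume, 0.5% additive, doses 320 g/ha or lower.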

[2] = tested on: Lolium rigidum (LOLRI); assay: Post-emergence herbicidal action against LOLRI
Procedure, shortened: as §1

[3] = tested on: Abutilon theophrasti (ABUTH); assay: Post-emergence herbicidal action against ABUTH; details: visual rating about 3 weeks after treatment vs untreated controls (100% = plants have died, 0% = like control plants)
Procedure, shortened: as §1

[4] = tested on: Alopecurus myosuroides (ALOMY); assay: Post-emergence herbicidal action against ALOMY; details: 320 g/ha, visual rating about 3 weeks after treatment vs untreated controls (100% = plants have died, 0% = like control plants)
Procedure, shortened: as §1

[5] = tested on: Amaranthus retroflexus (AMARE); assay: Post-emergence herbicidal action against AMARE
Procedure, shortened: as §1

[6] = tested on: Zea mays (ZEAMX); details: for Post-emergence action against ZEAMX in % (crop plant compatibility): 20 g/ha, effect in comparison to untreated controls; for Post-emergence action against ZEAMX in %: crop plant compatibility, 80 g/ha, effect vs untreated controls
Procedure, shortened: (§2)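 One-leaf-stage crops (2–3 wk post-sowing, sandy loam, greenhouse) sprayed on green parts; 0.5% additive, 600 l/ha water. Rated by eye ~3 wk later, % vs untreated; suffixes a/b/c mark different dosages.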

[7] = tested on: Triticum aestivum (TRZAS); details: crop plant compatibility, effect vs untreated controls
Procedure, shortened: as §2

[8] = tested on: Oryza sativa (ORYSA); details: crop plant compatibility
Procedure, shortened: as §2

[9] = tested on: Matricaria inodora (MATIN); assay: Post-emergence herbicidal action against MATIN
Procedure, shortened: as §1

[10] = tested on: Setaria viridis (SETVI); assay: Post-emergence herbicidal action against SETVI
Procedure, shortened: as §1

[11] = tested on: Verconica persica (VERPE); assay: Post-emergence herbicidal action against VERPE
Procedure, shortened: as §1

[12] = tested on: Viola tricolor (VIOTR); assay: Post-emergence herbicidal action against VIOTR
Procedure, shortened: as §1

[13] = tested on: Digitaria sanguinalis (DIGSA); assay: Post-emergence herbicidal action against DIGSA; details: visual rating about 3 weeks after treatment
Procedure, shortened: as §1

[14] = tested on: Avena fatua (AVEFA); assay: Post-emergence herbicidal action against AVEFA; details: 320 g/ha, visual rating about 3 weeks after treatment
Procedure, shortened: as §1

[15] = tested on: Pharbitis purpurea (PHBPU); assay: Post-emergence herbicidal action against PHBPU
Procedure, shortened: as §1

[16] = tested on: Polygonum convolvulus (POLCO); assay: Post-emergence herbicidal action against POLCO
Procedure, shortened: as §1

[17] = 320 g/ha, visual rating about 3 weeks after treatment
[18] = 20 g/ha, effect vs untreated controls
[19] = 80 g/ha, effect in comparison to untreated controls
[20] = 320 g/ha, effect in comparison to untreated controls
[21] = 80 g/ha, visual rating about 3 weeks after treatment vs untreated controls (100% = plants have died, 0% = like control plants)

| SMILES | Post-emergence action against ZEAMX in % (crop plant compatibility) [6] [%] | Post-emergence action against TRZAS in % ([7]; 20 g/ha) [%] | Post-emergence action against ORYSA in % [8, 18] [%] | Post-emergence action against ZEAMX in % [6] [%] | Post-emergence action against ORYSA in % [8, 19] [%] | Post-emergence action against ECHCG in % ([1]; dosage 80 g/ha) [%] | Post-emergence action against ECHCG in % ([1]; dosage 320 g/ha) [%] | Post-emergence action against ABUTH in % ([3]; 320 g/ha) [%] | Post-emergence action against ALOMY in % [4] [%] | Post-emergence action against AMARE in % [5, 17] [%] | Post-emergence action against MATIN in % ([9]; dosage 320 g/ha) [%] | Post-emergence action against SETVI in % ([10]; dosage 320 g/ha) [%] | Post-emergence action against VERPE in % ([11]; 320 g/ha, VERPE) [%] | Post-emergence action against VERPE in % ([11]; dosage 80 g/ha) [%] | Post-emergence action against VIOTR in % ([12]; 80 g/ha) [%] | Post-emergence action against VIOTR in % ([12]; 320 g/ha) [%] | Post-emergence action against DIGSA in % ([13]; 320 g/ha) [%] | Post-emergence action against AVEFA in % [14] [%] | Post-emergence action against PHBPU in % ([15]; dosage 80 g/ha) [%] | Post-emergence action against PHBPU in % ([15]; dosage 320 g/ha) [%] | further results |
| --- | --- | --- | --- | --- | --- | --- | --- | --- | --- | --- | --- | --- | --- | --- | --- | --- | --- | --- | --- | --- | --- |
| N#CCOC(=O)COc1nn(-c2ncccc2F)c(-c2ccc(F)nc2)c1C1CC1 [Example I-294] | 20 | 10 | 10 |  |  | 80 | 90 | 80 | 90 | 80 | 90 | 90 | 90 | 90 | 90 | 90 | 90 | 90 |  |  | Post-emergence action against LOLRI in % ([2]; dosage 320 g/ha): 90%; Post-emergence action against SETVI in % ([10]; dosage 80 g/ha): 90%; Post-emergence action against DIGSA in % ([13]; 80 g/ha): 80% |
| O=C(O)COc1nn(-c2ncccc2F)c(-c2cncc(F)c2)c1Cl [Example I-169] | 10 | 0 | 0 | 10 | 10 | 80 | 90 |  |  |  | 90 | 80 | 90 | 80 |  | 80 | 90 | 80 | 80 | 90 | Post-emergence action against LOLRI in % ([2]; dosage 320 g/ha): 80%; Post-emergence action against MATIN in % ([9]; dosage 80 g/ha): 80%; Post-emergence action against POLCO in % ([16]; dosage 80 g/ha): 80%; Post-emergence action against POLCO in % ([16]; dosage 320 g/ha): 80% |
| COC(=O)COc1nn(-c2ncccc2C)c(-c2cncc(F)c2)c1Br [Example I-179] |  | 0 | 0 | 20 | 20 | 90 | 90 | 80 | 90 | 90 | 90 | 90 | 90 | 90 | 90 | 90 | 90 | 90 | 80 | 90 | Post-emergence action against ABUTH in % ([3]; 80 g/ha): 80%; Post-emergence action against AMARE in % [5, 21]: 90%; Post-emergence action against MATIN in % ([9]; dosage 80 g/ha): 80%; Post-emergence action against SETVI in % ([10]; dosage 80 g/ha): 90%; Post-emergence action against POLCO in % ([16]; dosage 80 g/ha): 90%; Post-emergence action against POLCO in % ([16]; dosage 320 g/ha): 90%; Post-emergence action against DIGSA in % ([13]; 80 g/ha): 90% |
| O=C(COc1nn(-c2ncccc2F)c(-c2ccc(F)nc2)c1C1CC1)OCc1ccccc1 [Example I-287] | 10 | 20 | 0 | 20 | 20 | 90 | 90 | 90 | 90 | 80 | 80 | 90 | 80 | 80 | 80 | 90 | 80 | 90 |  | 80 | Post-emergence action against LOLRI in % ([2]; dosage 80 g/ha): 90%; Post-emergence action against LOLRI in % ([2]; dosage 320 g/ha): 90%; Post-emergence action against AMARE in % [5, 21]: 80%; Post-emergence action against SETVI in % ([10]; dosage 80 g/ha): 90%; Post-emergence action against DIGSA in % ([13]; 80 g/ha): 80% |

Now from value to molecule, other results behind:

| Post-emergence action against ZEAMX in % (crop plant compatibility) [6] [%] | Post-emergence action against TRZAS in % ([7]; 20 g/ha) [%] | Post-emergence action against ORYSA in % [8, 18] [%] | Post-emergence action against ZEAMX in % [6] [%] | Post-emergence action against ORYSA in % [8, 19] [%] | SMILES | Post-emergence action against ECHCG in % ([1]; dosage 80 g/ha) [%] | Post-emergence action against ECHCG in % ([1]; dosage 320 g/ha) [%] | Post-emergence action against ABUTH in % ([3]; 320 g/ha) [%] | Post-emergence action against ALOMY in % [4] [%] | Post-emergence action against AMARE in % [5, 17] [%] | Post-emergence action against MATIN in % ([9]; dosage 320 g/ha) [%] | Post-emergence action against SETVI in % ([10]; dosage 320 g/ha) [%] | Post-emergence action against VERPE in % ([11]; 320 g/ha, VERPE) [%] | Post-emergence action against VERPE in % ([11]; dosage 80 g/ha) [%] | Post-emergence action against VIOTR in % ([12]; 80 g/ha) [%] | Post-emergence action against VIOTR in % ([12]; 320 g/ha) [%] | Post-emergence action against DIGSA in % ([13]; 320 g/ha) [%] | Post-emergence action against AVEFA in % [14] [%] | Post-emergence action against PHBPU in % ([15]; dosage 80 g/ha) [%] | Post-emergence action against PHBPU in % ([15]; dosage 320 g/ha) [%] | further results |
| --- | --- | --- | --- | --- | --- | --- | --- | --- | --- | --- | --- | --- | --- | --- | --- | --- | --- | --- | --- | --- | --- |
| 0 | 10 | 0 | 20 | 0 | Cc1ncccc1-n1nc(OCC(=O)OCC2CCCO2)c(Br)c1-c1cncc(F)c1 (centres unmarked) [II-43] |  | 90 | 80 | 100 | 90 | 80 | 90 | 90 | 90 | 90 | 90 | 80 | 90 | 80 | 90 | Post-emergence action against ORYSA in % [8, 20]: 0%; Post-emergence action against POLCO in % ([16]; dosage 320 g/ha): 80% |
|  | 0 | 0 |  | 0 | CCOC(=O)COc1nn(-c2cccnc2C)c(-c2cncc(F)c2)c1Br [II-45] |  | 90 | 80 | 90 | 80 | 90 | 90 | 90 | 90 | 90 | 90 | 80 | 90 |  | 90 | Post-emergence action against POLCO in % ([16]; dosage 80 g/ha): 80%; Post-emergence action against POLCO in % ([16]; dosage 320 g/ha): 90% |
| 0 | 0 | 0 | 0 | 0 | COC(=O)CCOC(=O)COc1nn(-c2cccnc2C)c(-c2cncc(F)c2)c1Br [II-41] |  | 90 | 80 | 90 | 80 | 80 | 90 | 90 | 90 | 80 | 90 | 80 | 90 | 80 | 90 | Post-emergence action against TRZAS in % ([7]; 80 g/ha): 0%; Post-emergence action against ORYSA in % [8, 20]: 0% |
